Activity, EC50 and fold change (FC) data for one compound are collected here from ChEMBL document CHEMBL2203118, “Ethyl 2,4,6-trihydroxybenzoate is an agonistic ligand for liver X receptor that induces cholesterol efflux from macrophages without affecting lipid accumulation in HepG2 cells” (Bioorg Med Chem Lett, 2012).

Active and inactive are the calls of the source. The calls are words filed in the database; no cut-off is given here.

Data set [1] deals with HepG2. Nature of the data set: Reduction in SCD-1 gene expression in human HepG2 cells at 50 uM by qPCR analysis relative to control. The data set is classed as functional. Further details: scale not given: the % may be the effect or the level left. For orientation: In qPCR the cycle at which signal appears reflects the starting amount.
In data set [2] the target is T1, Oxysterols receptor LXR-beta (Homo sapiens) (UniProt P55055).
T1 sequence (whole entry): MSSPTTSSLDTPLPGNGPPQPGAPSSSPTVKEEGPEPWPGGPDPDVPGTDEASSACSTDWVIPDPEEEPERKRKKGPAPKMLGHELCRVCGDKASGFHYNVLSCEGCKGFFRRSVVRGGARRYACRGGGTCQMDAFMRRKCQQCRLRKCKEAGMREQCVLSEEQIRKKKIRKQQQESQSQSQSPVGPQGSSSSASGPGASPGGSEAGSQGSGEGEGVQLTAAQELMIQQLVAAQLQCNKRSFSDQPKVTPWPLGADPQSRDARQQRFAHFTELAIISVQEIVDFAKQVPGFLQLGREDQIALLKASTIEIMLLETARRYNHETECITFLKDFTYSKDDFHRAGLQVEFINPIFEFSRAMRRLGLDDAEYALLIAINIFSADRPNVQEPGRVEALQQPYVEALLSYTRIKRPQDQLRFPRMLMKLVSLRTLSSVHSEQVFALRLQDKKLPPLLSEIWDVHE
Nature of the data set: Binding affinity to human LXR-beta LBD by SPR-Biacore assay. For orientation: SPR reads the build-up and loss of mass on a sensor chip optically.

Data set [3] deals with T2, Peroxisome proliferator-activated receptor alpha (Homo sapiens) (UniProt Q07869).
T2 sequence (whole entry): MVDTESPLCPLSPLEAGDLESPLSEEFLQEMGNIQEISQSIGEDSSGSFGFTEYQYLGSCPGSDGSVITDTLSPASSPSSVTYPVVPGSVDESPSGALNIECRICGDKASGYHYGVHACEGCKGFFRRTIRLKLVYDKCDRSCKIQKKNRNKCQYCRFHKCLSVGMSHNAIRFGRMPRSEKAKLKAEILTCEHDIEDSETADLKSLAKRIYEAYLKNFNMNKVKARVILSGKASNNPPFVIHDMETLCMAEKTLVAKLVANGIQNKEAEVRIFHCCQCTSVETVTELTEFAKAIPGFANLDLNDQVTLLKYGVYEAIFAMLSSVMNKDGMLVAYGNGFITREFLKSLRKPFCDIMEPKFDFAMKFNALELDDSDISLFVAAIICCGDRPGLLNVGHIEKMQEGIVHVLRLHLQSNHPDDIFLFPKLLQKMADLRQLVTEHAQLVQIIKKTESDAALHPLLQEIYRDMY
The data set can be described thus: Transactivation of PPAR-alpha transfected in HEK293 cells at 50 to 100 uM after 24 hrs by luciferase reporter gene assay. The class given is cell-based. (Reporter assays use an easily measured gene product as a stand-in for the process of interest.)

The target in data set [4] is T3, Oxysterols receptor LXR-beta (Homo sapiens, UniProt P55055).
T3 sequence (P55055 whole entry): T1 sequence (whole entry)
Nature of the data set: (§1) Agonist activity at human LXR-beta assessed as increase in recruitment of Trap 220/D22 coactivator peptide by TR-FRET assay. The data set is classed as functional.

The target of data set [5] is T1, Oxysterols receptor LXR-beta (Homo sapiens). Described as §1. The data set is classed as functional.
Data set [6] concerns HepG2. Nature of the data set: Upregulation of SREBP-1 gene expression in human HepG2 cells at 50 to 100 uM by immunoblot analysis. The class given is ADME, cell-based. Particulars: hepg2, 100 µM.
Data set [7] concerns the target T4, Oxysterols receptor LXR-alpha (Homo sapiens) (UniProt Q13133).
T4 sequence (whole entry): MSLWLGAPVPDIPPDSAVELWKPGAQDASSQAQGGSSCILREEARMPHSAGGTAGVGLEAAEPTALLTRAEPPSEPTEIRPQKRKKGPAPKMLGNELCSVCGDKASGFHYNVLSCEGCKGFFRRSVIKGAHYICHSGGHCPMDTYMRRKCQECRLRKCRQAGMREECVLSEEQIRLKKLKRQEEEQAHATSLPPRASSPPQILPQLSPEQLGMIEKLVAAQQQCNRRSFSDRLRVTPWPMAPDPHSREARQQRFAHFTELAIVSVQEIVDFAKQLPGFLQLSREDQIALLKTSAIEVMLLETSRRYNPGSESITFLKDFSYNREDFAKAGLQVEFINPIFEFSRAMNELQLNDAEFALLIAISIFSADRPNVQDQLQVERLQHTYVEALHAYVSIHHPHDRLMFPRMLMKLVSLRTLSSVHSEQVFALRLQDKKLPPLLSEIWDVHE
The data set can be described thus: Agonist activity at LXR-alpha in human THP1 cells assessed as reduced cellular cholesterol concentration. Conditions: THP-1. The data set is classed as functional, cell-based.

For data set [8], the target named is T5, Liver X receptor (Homo sapiens) (UniProt Q13133+P55055). The data set can be described thus: Agonist activity at LXR in human Caco2 cells assessed as decrease in NPC1L1 mRNA level at 100 uM after 48 hrs by qPCR analysis relative to control. The class given is functional, cell-based. The arrangement: scale not given: the % may be the effect or the level left. Conditions: Caco-2.

In data set [9] the target is T6, Peroxisome proliferator-activated receptor gamma (Homo sapiens) (UniProt P37231).
T6 sequence (whole entry): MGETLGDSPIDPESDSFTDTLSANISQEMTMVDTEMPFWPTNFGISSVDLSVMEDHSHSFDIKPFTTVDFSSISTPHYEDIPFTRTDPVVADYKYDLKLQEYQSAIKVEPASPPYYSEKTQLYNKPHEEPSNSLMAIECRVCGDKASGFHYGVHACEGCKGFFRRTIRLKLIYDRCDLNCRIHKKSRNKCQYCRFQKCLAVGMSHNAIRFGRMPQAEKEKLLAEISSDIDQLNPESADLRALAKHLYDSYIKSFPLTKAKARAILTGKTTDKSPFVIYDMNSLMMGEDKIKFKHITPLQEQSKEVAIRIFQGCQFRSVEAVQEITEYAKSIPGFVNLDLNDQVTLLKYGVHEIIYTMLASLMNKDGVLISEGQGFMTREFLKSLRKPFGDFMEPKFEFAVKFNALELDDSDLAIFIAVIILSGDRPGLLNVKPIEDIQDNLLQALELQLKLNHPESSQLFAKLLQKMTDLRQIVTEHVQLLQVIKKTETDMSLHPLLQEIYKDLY
The data set can be described thus: Transactivation of PPAR-gamma transfected in HEK293 cells at 50 to 100 uM after 24 hrs by luciferase reporter gene assay. The data set is classed as cell-based.

Data set [10] concerns the target T4, Oxysterols receptor LXR-alpha (Homo sapiens). Nature of the data set: Agonist activity at LXR-alpha in human THP1 cells assessed as increase cholesterol efflux to HDL by FACs analysis. The class given is functional, cell-based. Particulars: THP-1.
For data set [11], the target named is T5, Liver X receptor (Homo sapiens). Nature of the data set: Agonist activity at LXR in human Caco2 cells assessed as increase in ABCG5 mRNA level at 100 uM after 48 hrs by qPCR analysis relative to control. Conditions: Caco-2. The data set is classed as functional, cell-based.
The target is the same in data set [12]. Nature of the data set: Agonist activity at LXR in human THP1 cells assessed as induction of ABCA1 gene expression at 100 uM after 48 hrs by immunoblot analysis relative to control. The data set is classed as functional, cell-based. Conditions: THP-1.
The target is the same in data set [13]. Nature of the data set: Agonist activity at LXR in human THP1 cells assessed as increase in ApoE mRNA level at 100 uM after 48 hrs by qPCR analysis relative to control. The class given is functional, cell-based. Particulars: THP-1.
For data set [14], the target named is T7, Oxysterols receptor LXR-alpha (Homo sapiens, UniProt Q13133).
T7 sequence (Q13133 whole entry): T4 sequence (whole entry)
The data set can be described thus: Transactivation of human LXR-alpha transfected in HEK293 cells after 24 hrs by luciferase reporter gene assay. The class given is cell-based.

Data set [15] addresses T5, Liver X receptor (Homo sapiens). The data set can be described thus: Agonist activity at LXR in human THP1 cells assessed as induction of ABCG1 gene expression at 100 uM after 48 hrs by immunoblot analysis relative to control. The data set is classed as functional, cell-based. Particulars: THP-1.
Data set [16] has as its system HepG2. Nature of the data set: Induction of lipid accumulation in human HepG2 cells assessed as cellular triglyceride concentration at 50 to 100 uM. The class given is cell-based. Conditions: hepg2, 100 µM.
The target of data set [17] is T3, Oxysterols receptor LXR-beta. Nature of the data set: Transactivation of human LXR-beta transfected in HEK293 cells after 24 hrs by luciferase reporter gene assay. The data set is classed as cell-based.

As a reminder, the EC50 is the concentration at which the effect is half-maximal. In the case of `CCOC(=O)c1c(O)cc(O)cc1O`, the Activity in data set [1] is 47.6%; in [5] it was “Dose-dependent effect”; in [6], “Non-toxic”; in data set [7], “Dose-dependent effect”; in data set [8], 33.2%; in data set [10] it was “Dose-dependent effect”. Besides, in [16], the Activity entry is “Non-toxic”. The result in data set [2], in data set [12] and in [15] was Active. Besides, the outcome in data set [3] and in data set [9] was inactive. Also, the concentration for a half-maximal effect (EC50) in data set [4] was determined as 3.04 µM; in data set [14], 80.8 µM; in [17] it was 37.8 µM. Besides, the fold change (FC) in data set [11] was determined as 12.6; in [13], 1.9.
